Test results from ChEMBL document CHEMBL1128981, “A comparison of steroidal and non-steroidal inhibitors of human steroid 5-reductase: New tricyclic aryl acid inhibitors of the type-1 isozyme” (Bioorg Med Chem Lett, 1996).

What was measured:
[1] = target: T1, 3-oxo-5-alpha-steroid 4-dehydrogenase 2 (Homo sapiens, UniProt P31213); assay: Inhibitory activity against type-2 human steroid 5-alpha-reductase.
T1 sequence (P31213 whole entry): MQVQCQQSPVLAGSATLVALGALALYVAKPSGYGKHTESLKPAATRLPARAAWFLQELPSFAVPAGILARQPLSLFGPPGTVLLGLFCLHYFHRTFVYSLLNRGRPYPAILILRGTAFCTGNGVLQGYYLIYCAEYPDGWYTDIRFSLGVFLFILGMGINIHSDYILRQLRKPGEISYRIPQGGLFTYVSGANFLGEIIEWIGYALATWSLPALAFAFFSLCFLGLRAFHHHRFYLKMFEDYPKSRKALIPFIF

[2] = target: T2, 3-oxo-5-alpha-steroid 4-dehydrogenase 1 (Homo sapiens, UniProt P18405); assay: Inhibitory activity against type-1 human steroid 5-alpha-reductase.
T2 sequence (P18405 whole entry): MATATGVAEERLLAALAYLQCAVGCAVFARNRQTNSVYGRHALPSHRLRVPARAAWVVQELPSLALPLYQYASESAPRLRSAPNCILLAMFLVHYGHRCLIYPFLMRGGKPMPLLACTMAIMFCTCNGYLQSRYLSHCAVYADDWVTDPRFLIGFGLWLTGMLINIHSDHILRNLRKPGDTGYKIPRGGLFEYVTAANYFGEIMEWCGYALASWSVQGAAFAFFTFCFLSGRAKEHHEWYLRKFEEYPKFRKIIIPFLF

[3] = target: T2, 3-oxo-5-alpha-steroid 4-dehydrogenase 1; assay: Inhibition of type-1 human steroid 5-alpha-reductase; conditions: read-out: Ki app
[4] = target: T1, 3-oxo-5-alpha-steroid 4-dehydrogenase 2; assay: Inhibition of type-2 human steroid 5-alpha-reductase.; conditions: read-out: Ki app
[5] = target: T3, 3-oxo-5-alpha-steroid 4-dehydrogenase 2 (Homo sapiens) (UniProt P31213); conditions: 20 uM
T3 sequence (whole entry): T1 sequence (P31213 whole entry)
Description: Inhibitory activity against type-2 human steroid 5-alpha-reductase at a concentration of 20 uM

[6] = target: T3, 3-oxo-5-alpha-steroid 4-dehydrogenase 2 (Homo sapiens); assay: Inhibitory activity against type-2 human steroid 5-alpha-reductase at a concentration of 2.5 uM
[7] = target: T3, 3-oxo-5-alpha-steroid 4-dehydrogenase 2 (Homo sapiens); conditions: 10 uM
Description: Inhibitory activity against type-2 human steroid 5-alpha-reductase at a concentration of 10 uM

[8] = target: T1, 3-oxo-5-alpha-steroid 4-dehydrogenase 2; assay: (§1) Inhibitory activity against type-2 human steroid 5-alpha-reductase at a concentration of 1 uM; No inhibition
[9] = target: T1, 3-oxo-5-alpha-steroid 4-dehydrogenase 2; assay: as §1; remark: listed apart in the source
[10] = target: T1, 3-oxo-5-alpha-steroid 4-dehydrogenase 2; assay: Inhibitory activity against type-2 human steroid 5-alpha-reductase at a concentration of 1 uM: No inhibition
[11] = target: T4, 3-oxo-5-alpha-steroid 4-dehydrogenase 1 (Homo sapiens) (UniProt P18405); assay: Inhibitory activity against type-1 human steroid 5-alpha-reductase at a concentration of 2.5 uM
T4 sequence (whole entry): T2 sequence (P18405 whole entry)

Row | Compound | Ki [3] [nM] | Ki [4] [nM] | also measured
1 | CC(C)(C)NC(=O)[C@H]1CC[C@H]2[C@@H]3CC[C@H]4NC(=O)C=C[C@]4(C)[C@H]3CC[C@]12C [FINASTERIDE] | – | – | IC50 [1]: 4.2 nM; IC50 [2]: 500 nM
2 | C[C@]12CCC(C(=O)O)=CC1=CCc1cc(Cl)ccc12 | 1200 | 260 | –
3 | CC1=C2NCc3cc(Cl)ccc3[C@@]2(C)CCC1=O | 920 | 20000 | inhibition [5]: 49%
4 | O=C(O)c1ccc2c(c1)CCc1cc(Cl)ccc1-2 | 320 | 2500 | inhibition [6]: 50%
5 | O=C(O)c1ccc2c(c1)CCc1ccccc1-2 | 315 | 10000 | inhibition [7]: 20%
6 | CN1C(=O)CC[C@]2(C)c3ccc(Cl)cc3CC[C@@H]12 | – | – | Ki app [8]: Not Active; Ki app [9]: Not Active
7 | CC(C)(C)NC(=O)[C@H]1CCC2C3CC=C4C=C([PH](=O)O)CC[C@]4(C)C3CC[C@@]21C (some centres undefined) | 3200 | 1.3 | –
8 | CC(C)(C)NC(=O)[C@H]1CC[C@H]2[C@@H]3CCc4cc(C(=O)O)ccc4[C@H]3CC[C@]12C | 1600 | 0.4 | –
9 | COc1cccc2c1CC[C@H]1C=C([N+](=O)[O-])CC[C@]21C | > 2500 | – | Ki app [10]: Not Active; inhibition [11]: 10%
10 | CC(C)N(C(=O)[C@H]1CCC2C3CC[C@H]4C=C([N+](=O)[O-])CC[C@]4(C)C3CC[C@@]21C)C(C)C (some centres undefined) | 4200 | 30 | –
11 | CCN(CC)C(=O)[C@H]1CC[C@H]2[C@@H]3CC[C@H]4N(C)C(=O)CC[C@]4(C)[C@H]3CC[C@]12C | 3 | 2 | –
12 | O=C(O)c1ccc2c(c1)Cc1ccccc1-2 | > 2500 | 10000 | inhibition [11]: 30%
13 | C[C@]12CCC([PH](=O)O)=CC1=CCc1cc(Cl)ccc12 | 1900 | 1600 | –
14 | O=C(O)c1ccc2c(c1)CCc1cc(Br)ccc1-2 | 26 | 10000 | –
15 | CC(C)CC(=O)[C@H]1CCC2C3CNC4=CC(=O)CC[C@]4(C)C3CC[C@@]21C (some centres undefined) | – | 0.08 | –
